# Reference: ChEMBL document CHEMBL1201862, “PubChem BioAssay data set” (2004)
# Calls of active or inactive are those of the source. Cut-off read from the data, not from the text of the source, for most assays here: actives have a measured IC50 and inactives only a lower limit.
# Legend:
# [1] = blockade of melanocortin 4 receptor signaling – cell-based, plate reader, cherry pick, counter-screen for LGR2 antagonist project, dose response (AID 743444); format: functional;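 note: transfected HEK 293 cells stimulated with alpha-MSH peptide; potency of inhibitors of the alpha-MSH evoked signal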
# Trypsin = Trypsin (Sus scrofa, UniProt P00761); assay: trypsin protease activity blockade – biochemical, quenched peptide fluorescence, cherry-pick, selectivity assay for Rce1 protease inhibitor project, dose response (AID 488789)
# Trypsin, sequence (P00761 whole entry): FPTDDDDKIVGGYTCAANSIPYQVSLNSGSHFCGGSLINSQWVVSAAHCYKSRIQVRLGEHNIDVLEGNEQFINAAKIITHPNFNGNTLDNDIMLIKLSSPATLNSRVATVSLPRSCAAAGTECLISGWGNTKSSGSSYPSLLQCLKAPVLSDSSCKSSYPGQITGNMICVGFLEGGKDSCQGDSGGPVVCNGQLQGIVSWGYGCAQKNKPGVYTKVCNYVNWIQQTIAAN
# [2] = blockers of bursicon-stimulated LGR2 cAMP reporter – cell-based, HEK293, CRE-luciferase reporter, cherry pick, set 2, dose response (AID 743343); format: functional;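 note: transfected cells were stimulated with diluted bursicon conditioned medium after compound addition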
# HEK293 [3] = assay: cells; format: functional, cell-based; conditions: Homo sapiens
# HEK293 [4] = assay: inhibition of NOD1-driven NF-kB reporter – cell-based, luminescence, uHTS, primary screen (AID 1578); format: functional; conditions: Homo sapiens
# Tumor necrosis factor = Tumor necrosis factor (Homo sapiens, UniProt P01375); assay: analog potency on TNFa NF-kB signaling – cell-based, revised, SAR follow-up (AID 2337); format: functional
# [5] = biological target: Nucleotide-binding oligomerization domain-containing protein 2 (Homo sapiens, UniProt Q9HC29); assay: inhibition of NOD2-driven NF-kB reporter – cell-based, luminescence, uHTS, HEK293 (AID 1566); format: functional
# [6] = biological target: T1, Nucleotide-binding oligomerization domain-containing protein 1 (Homo sapiens, UniProt Q9Y239); assay: blockers of NOD1 pathway activity – revised, SAR follow-up (AID 2333); format: functional
# T1 sequence (Q9Y239 whole entry): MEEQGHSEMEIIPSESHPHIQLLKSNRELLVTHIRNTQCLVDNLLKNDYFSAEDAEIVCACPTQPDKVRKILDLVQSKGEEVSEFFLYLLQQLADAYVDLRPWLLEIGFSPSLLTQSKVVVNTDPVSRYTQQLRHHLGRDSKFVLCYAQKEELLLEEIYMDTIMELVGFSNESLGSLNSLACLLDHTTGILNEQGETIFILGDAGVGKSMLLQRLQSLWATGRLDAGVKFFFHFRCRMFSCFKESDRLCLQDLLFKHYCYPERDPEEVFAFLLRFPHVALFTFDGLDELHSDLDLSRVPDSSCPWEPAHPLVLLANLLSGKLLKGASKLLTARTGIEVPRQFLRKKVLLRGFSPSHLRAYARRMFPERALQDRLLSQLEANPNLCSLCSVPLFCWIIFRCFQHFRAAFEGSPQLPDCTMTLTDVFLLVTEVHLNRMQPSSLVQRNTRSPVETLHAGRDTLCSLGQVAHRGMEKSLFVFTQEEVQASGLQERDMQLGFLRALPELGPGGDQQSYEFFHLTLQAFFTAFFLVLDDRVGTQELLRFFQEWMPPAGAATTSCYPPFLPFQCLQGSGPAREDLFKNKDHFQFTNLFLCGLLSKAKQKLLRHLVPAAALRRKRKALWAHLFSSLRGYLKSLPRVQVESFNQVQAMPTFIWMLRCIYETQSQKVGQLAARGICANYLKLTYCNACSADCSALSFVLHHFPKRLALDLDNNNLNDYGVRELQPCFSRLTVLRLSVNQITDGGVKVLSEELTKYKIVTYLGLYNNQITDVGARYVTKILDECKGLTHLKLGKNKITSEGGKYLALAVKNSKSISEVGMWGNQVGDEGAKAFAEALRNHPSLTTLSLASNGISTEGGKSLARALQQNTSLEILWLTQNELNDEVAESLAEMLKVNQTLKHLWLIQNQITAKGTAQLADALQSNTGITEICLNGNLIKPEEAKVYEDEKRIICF
# HEK293 [7] = assay: cells; conditions: Homo sapiens
# HEK293 [8] = assay: NOD2 signaling inhibitors in MDP-stimulated cells, cell-based, uHTS, luminescence (AID 2001); format: functional; conditions: Homo sapiens
# HEK293 [9] = assay: cells; format: functional, cell-based; conditions: Homo sapiens; remark: listed apart in the source
# HEK293 [10] = assay: cells; format: functional, cell-based; conditions: Homo sapiens; remark: listed apart in the source
# [11] = biological target: T2, Voltage-gated N-type calcium channel alpha-1B subunit/Amyloid beta A4 precursor protein-binding family A member 1 (Homo sapiens, UniProt Q00975+Q02410); format: protein assay
# T2 sequence (Q00975 whole entry, the tested form may be a part): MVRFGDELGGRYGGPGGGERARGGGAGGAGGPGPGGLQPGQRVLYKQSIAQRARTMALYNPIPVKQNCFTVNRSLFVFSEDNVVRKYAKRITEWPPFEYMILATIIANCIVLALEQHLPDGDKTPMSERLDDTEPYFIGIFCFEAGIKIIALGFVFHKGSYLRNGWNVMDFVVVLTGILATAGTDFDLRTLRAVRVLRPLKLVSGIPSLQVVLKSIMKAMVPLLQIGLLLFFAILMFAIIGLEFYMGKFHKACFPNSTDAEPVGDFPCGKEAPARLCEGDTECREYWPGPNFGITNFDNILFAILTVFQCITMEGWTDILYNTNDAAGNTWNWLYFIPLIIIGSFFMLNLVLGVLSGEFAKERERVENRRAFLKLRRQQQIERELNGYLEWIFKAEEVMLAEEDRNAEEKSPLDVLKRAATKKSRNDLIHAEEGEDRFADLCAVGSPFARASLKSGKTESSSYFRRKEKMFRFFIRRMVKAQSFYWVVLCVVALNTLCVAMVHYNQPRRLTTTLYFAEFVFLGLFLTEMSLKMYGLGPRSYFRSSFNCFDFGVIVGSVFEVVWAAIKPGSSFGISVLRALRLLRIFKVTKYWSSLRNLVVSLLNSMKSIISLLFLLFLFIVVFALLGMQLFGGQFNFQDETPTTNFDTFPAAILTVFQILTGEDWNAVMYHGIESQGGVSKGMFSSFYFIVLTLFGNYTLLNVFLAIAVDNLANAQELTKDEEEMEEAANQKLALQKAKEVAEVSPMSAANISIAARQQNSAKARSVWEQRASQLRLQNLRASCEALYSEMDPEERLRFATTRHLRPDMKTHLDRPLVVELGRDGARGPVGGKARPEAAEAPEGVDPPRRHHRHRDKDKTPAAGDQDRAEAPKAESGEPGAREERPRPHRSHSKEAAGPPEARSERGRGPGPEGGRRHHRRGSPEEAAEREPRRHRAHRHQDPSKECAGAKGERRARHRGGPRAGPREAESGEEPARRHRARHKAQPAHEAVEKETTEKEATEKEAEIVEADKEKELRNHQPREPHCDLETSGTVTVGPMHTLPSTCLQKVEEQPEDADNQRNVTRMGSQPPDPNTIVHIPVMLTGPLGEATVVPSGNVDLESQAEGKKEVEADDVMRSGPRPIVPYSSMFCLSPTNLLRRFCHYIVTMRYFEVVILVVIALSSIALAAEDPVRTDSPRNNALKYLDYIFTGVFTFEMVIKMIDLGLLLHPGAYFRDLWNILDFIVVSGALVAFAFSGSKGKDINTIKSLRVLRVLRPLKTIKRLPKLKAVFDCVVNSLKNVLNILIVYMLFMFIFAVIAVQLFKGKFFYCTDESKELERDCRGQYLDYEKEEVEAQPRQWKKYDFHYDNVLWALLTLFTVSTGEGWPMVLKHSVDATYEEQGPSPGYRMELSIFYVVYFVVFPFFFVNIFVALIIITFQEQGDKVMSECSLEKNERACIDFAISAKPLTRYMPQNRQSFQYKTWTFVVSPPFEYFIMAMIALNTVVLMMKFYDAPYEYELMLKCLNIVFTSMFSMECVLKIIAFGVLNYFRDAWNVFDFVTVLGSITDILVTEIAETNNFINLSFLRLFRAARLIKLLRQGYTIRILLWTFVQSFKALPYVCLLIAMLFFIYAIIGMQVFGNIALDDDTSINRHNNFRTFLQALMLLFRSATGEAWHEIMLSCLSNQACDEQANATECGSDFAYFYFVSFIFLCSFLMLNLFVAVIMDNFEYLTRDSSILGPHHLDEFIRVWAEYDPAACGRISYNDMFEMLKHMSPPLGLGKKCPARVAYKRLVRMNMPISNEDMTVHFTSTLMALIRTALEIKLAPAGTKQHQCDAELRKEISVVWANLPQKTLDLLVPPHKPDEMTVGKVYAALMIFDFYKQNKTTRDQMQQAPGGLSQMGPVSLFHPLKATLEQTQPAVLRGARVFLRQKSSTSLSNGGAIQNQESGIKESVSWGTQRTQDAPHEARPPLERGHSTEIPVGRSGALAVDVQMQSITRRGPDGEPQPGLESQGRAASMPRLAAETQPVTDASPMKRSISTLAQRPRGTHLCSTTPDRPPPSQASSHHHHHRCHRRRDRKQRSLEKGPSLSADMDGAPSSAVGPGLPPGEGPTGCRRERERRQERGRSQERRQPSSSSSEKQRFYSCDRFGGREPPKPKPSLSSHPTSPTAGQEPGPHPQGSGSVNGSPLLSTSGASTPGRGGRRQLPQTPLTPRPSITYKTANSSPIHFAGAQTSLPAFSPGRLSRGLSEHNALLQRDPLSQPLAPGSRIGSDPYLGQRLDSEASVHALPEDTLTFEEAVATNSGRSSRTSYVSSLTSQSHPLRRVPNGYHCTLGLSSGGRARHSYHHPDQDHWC
# T2 sequence (Q02410 whole entry, the tested form may be a part): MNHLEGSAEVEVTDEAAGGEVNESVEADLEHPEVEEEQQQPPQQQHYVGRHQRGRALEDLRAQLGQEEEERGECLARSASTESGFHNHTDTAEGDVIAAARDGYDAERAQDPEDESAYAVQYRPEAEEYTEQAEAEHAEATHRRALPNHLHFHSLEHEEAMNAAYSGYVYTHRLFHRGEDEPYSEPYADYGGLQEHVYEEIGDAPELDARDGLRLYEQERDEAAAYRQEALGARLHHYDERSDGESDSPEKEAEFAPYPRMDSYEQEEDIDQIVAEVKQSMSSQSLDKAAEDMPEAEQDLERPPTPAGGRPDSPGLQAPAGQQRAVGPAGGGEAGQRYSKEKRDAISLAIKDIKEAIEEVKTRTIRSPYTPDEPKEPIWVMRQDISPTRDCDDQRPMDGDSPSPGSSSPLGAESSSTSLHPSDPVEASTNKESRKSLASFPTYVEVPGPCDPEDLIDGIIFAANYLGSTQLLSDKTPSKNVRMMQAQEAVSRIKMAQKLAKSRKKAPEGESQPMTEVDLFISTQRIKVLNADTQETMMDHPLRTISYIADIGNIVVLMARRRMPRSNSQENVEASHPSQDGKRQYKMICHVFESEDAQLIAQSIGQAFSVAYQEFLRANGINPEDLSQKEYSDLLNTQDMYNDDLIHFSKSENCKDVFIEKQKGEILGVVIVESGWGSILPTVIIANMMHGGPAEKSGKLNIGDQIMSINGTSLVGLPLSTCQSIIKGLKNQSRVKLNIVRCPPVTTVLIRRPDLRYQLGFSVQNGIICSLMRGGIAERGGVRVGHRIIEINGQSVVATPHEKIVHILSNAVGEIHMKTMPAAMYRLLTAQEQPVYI
# [12] = biological target: T3, Carboxy-terminal domain RNA polymerase II polypeptide A small phosphatase 1 (Homo sapiens, UniProt Q9GZU7); assay: CTDSP1 inhibitors, concentration-response, biochemical, absorbance readout, ultra-high-throughput screen actives (AID 540297); format: functional
# T3 sequence (Q9GZU7 whole entry): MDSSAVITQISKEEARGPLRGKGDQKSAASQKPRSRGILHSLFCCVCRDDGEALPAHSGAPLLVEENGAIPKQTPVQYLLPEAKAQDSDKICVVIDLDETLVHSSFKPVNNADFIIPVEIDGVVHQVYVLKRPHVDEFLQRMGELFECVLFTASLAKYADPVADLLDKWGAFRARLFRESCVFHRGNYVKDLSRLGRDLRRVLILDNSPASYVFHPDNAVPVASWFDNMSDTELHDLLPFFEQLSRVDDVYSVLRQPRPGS
# [13] = biological target: 72 kDa type IV collagenase (Homo sapiens, UniProt P08253); assay: Dose Response validation of uHTS RPN11 inhibitor hits using a MMP-2 Fluorescence assay.; format: functional
# 72 kDa type IV collagenase, sequence (P08253 whole entry): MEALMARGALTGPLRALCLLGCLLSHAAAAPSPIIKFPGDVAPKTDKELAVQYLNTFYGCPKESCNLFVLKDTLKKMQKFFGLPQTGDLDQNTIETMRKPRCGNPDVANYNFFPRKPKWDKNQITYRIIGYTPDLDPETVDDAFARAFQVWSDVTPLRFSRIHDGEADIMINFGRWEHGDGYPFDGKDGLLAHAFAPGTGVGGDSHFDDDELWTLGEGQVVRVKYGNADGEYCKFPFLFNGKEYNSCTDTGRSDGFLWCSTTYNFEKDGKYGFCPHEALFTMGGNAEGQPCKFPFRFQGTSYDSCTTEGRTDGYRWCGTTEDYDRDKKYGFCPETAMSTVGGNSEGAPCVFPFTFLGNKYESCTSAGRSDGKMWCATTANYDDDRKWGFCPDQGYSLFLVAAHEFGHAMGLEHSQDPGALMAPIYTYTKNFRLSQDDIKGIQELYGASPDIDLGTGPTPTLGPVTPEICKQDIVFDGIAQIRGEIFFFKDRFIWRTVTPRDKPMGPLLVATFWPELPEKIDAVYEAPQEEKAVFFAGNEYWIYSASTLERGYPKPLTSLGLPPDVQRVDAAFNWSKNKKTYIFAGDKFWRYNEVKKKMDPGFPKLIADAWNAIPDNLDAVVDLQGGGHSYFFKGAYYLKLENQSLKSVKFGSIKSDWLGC
# [14] = biological target: 26S proteasome non-ATPase regulatory subunit 14 (Homo sapiens, UniProt O00487); assay: inhibition of proteasome subunit RPN11 – biochemical, fluorescence polarization, uHTS hits, confirmation (AID 602368); format: functional
# SUMO-activating enzyme [15] = biological target: T4, SUMO-activating enzyme (Homo sapiens, UniProt Q9UBT2); assay: blockers of UBC9-mediated SUMO conjugation – biochemical, AlphaScreen, SUMOylation inhibitor project, confirmation (AID 2018); format: functional
# T4 sequence (Q9UBE0 whole entry): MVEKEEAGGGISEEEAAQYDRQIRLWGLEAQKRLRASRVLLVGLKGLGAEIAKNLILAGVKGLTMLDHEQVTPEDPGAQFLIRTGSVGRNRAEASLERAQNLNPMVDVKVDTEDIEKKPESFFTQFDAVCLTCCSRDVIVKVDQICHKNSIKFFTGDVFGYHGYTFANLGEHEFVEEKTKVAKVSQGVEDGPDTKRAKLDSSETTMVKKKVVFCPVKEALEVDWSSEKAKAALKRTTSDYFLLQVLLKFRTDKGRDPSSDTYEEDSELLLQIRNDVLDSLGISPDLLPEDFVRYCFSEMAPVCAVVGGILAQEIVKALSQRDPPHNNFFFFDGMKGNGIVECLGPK
# T4 sequence (Q9UBT2 whole entry): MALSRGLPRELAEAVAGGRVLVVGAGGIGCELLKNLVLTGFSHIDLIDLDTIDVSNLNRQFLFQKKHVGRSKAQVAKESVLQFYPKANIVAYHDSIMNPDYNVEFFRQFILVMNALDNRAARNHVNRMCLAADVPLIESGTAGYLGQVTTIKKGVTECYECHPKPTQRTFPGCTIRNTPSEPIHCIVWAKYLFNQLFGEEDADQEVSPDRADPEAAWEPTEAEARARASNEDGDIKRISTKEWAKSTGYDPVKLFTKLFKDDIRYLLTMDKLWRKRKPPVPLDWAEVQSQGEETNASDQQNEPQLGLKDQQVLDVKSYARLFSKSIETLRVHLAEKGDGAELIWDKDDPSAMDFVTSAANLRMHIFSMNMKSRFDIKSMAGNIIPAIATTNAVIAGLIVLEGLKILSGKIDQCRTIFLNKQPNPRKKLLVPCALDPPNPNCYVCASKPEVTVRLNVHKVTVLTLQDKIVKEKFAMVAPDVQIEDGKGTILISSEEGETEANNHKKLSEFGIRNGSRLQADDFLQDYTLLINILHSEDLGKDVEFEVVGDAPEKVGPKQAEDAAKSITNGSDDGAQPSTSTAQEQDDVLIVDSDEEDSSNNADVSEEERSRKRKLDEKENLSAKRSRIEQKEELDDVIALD
# [16] = biological target: T2, Voltage-gated N-type calcium channel alpha-1B subunit/Amyloid beta A4 precursor protein-binding family A member 1; format: protein assay; remark: listed apart in the source
# Prothrombin = Prothrombin (Bos taurus, UniProt P00735); assay: thrombin protease inhibitors – biochemical, fluorescence polarization, uHTS hits, dose response (AID 602369); format: functional
# [17] = Counterscreen for IDE inhibitors: Luminescence-based cell-based high throughput dose response assay to identify compounds that are cytotoxic to HEK cells. [Related pubchem assays: 434962 (Primary screen (IDE inhibitors in singlicate)), 449730 (Counterscreen (Cytotoxicity in triplicate)), 435028 (Confirmation (IDE inhibitors in triplicate)) …; format: functional; conditions: HEK293
# Insulin-degrading enzyme = biological target: T5, Insulin-degrading enzyme (Homo sapiens, UniProt P14735); assay: Dose Response: Fluorescence polarization-based cell-based high throughput dose response assay for inhibitors of insulin-degrading enzyme (IDE). [Related pubchem assays: 434962 (Primary screen (IDE inhibitors in singlicate)), 449730 (Counterscreen (Cytotoxicity in triplicate)), 435028 (Confirmation (IDE inhibitors in triplicate)), 434984 (Summary …; format: functional
# T5 sequence (P14735 whole entry): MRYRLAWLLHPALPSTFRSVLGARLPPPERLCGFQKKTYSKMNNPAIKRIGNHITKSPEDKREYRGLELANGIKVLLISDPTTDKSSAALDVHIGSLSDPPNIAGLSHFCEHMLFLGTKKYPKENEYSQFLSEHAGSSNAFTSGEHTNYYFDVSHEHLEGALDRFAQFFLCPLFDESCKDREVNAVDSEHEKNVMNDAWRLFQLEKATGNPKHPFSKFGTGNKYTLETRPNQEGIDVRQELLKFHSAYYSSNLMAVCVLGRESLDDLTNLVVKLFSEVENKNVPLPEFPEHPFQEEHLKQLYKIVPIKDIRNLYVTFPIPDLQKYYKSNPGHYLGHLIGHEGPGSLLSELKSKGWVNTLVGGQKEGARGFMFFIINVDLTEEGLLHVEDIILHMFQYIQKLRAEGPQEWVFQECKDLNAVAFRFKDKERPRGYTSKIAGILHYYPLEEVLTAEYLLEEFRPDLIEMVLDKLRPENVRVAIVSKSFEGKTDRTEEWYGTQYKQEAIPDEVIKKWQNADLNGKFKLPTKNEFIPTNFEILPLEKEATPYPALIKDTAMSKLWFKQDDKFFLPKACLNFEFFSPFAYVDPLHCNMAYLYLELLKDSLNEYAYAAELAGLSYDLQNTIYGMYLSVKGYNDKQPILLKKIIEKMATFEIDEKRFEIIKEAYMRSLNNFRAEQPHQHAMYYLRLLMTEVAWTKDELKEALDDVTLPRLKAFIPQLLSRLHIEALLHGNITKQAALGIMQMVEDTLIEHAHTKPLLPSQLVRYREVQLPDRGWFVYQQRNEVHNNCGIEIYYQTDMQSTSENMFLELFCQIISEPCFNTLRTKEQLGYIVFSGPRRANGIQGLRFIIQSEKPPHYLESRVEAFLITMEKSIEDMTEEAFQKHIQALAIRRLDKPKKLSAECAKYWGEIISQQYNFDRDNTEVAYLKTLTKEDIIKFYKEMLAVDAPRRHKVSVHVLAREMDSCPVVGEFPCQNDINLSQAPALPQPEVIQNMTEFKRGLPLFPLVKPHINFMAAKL
# SUMO-activating enzyme [18] = biological target: T4, SUMO-activating enzyme; assay: blockers of SAE1/SAE2–UBC9 SUMO transfer – biochemical, HTRF, uHTS, primary screen (AID 2006); format: protein-complex assay
smiles,measurement,setting,value
c1ccc(-n2cnnc2SCc2cn3cccnc3n2)cc1,AC50,[1],19.4 µM (active)
same,AC50,Trypsin,9.66 µM (active)
same,AC50,[2],30.1 µM (active)
CC1CCc2c(sc(NC(=O)/C=C/c3cccs3)c2C(=O)O)C1 (stereo not drawn),IC50,HEK293 [3],> 20 µM (inactive)
same,EC50,HEK293 [4],6.14 µM (active)
same,IC50,Tumor necrosis factor,9.63 µM (active)
same,EC50,[5],> 20 µM (inactive)
same,IC50,[6],1.55 µM (active)
same,IC50,HEK293 [7],> 20 µM (inactive)
same,IC50,HEK293 [8],16.7 µM (inactive)
same,IC50,HEK293 [9],> 20 µM (inactive)
same,IC50,HEK293 [10],> 20 µM (inactive)
NS(=O)(=O)c1ccc(NC(=O)c2ccc(-c3ccccc3)cc2)cc1,IC50,[11],4.83 µM (active)
same,IC50,[12],4.56 µM (active)
same,IC50,[13],> 100 µM (inactive)
same,IC50,[14],8.12 µM (active)
same,IC50,SUMO-activating enzyme [15],13.8 µM (active)
same,IC50,[16],> 50 µM (inactive)
same,IC50,Prothrombin,51.4 µM (active)
Cc1cccc(C(=O)Nc2ccnc(-c3ccncc3)n2)c1,IC50,[17],22.9 µM (not active)
same,IC50,Insulin-degrading enzyme,7.39 µM (active)
O=C(O)c1ccc2c(c1)C1C(Cl)C(Sc3ccccc3[N+](=O)[O-])CC1C(c1cccc([N+](=O)[O-])c1)N2 (stereo not drawn),IC50,SUMO-activating enzyme [18],23.6 µM (active)
same,IC50,SUMO-activating enzyme [15],2.26 µM (active)
